The test deals with T1, recombinant IRAK-4 kinase (Homo sapiens, UniProt Q9NWZ3).
T1 construct: purchased Millipore, USA
T1 sequence (Q9NWZ3 1-460): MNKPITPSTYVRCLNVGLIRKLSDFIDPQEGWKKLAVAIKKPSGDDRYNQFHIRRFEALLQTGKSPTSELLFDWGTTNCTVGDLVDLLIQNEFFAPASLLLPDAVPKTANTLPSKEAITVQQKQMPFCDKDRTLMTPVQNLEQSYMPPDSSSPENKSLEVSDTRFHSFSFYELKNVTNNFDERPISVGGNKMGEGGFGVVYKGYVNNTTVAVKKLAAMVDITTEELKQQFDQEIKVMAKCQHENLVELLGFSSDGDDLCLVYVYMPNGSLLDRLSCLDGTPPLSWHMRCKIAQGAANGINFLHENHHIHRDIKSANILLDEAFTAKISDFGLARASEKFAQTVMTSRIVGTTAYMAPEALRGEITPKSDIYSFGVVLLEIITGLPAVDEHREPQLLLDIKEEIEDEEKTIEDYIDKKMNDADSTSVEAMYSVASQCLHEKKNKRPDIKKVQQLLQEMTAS
Kind of test: IRAK-4 Biochemical Assay (TR-FRET, percent inhibition). As to the method:
Compounds were tested for their potential to inhibit IRAK-4 enzyme in a TR-FRET assay using recombinant IRAK-4 kinase from Millipore, USA. The assay buffer was 50 mM Tris-HCl pH 7.5, 20 mM MgCl2, 1 mM EGTA, 2 mM DTT, 3 mM MnCl2 and 0.01% Tween 20.5 ng of IRAK-4 kinase was used for the assay. After pre-incubation of enzyme with test compound for 30 minutes at room temperature, a substrate mixture containing 100 nM Biotin Histone H3 (Millipore, USA) and 20 μM ATP (Sigma, USA) was added and the reaction was incubated for 30 min. Post incubation, the reaction was stopped by the addition of stop mix containing 40 mM EDTA, 1 nM of Europium-Anti-Phospho-Histone H3 (Ser10) antibody (Perkin Elmer, USA) and 20 nM SureLight Allophycocyanin-Streptavidin (Perkin Elmer, USA). The fluorescence emission at 615 nm and 665 nm were measured at an excitation of 340 nm and the percent inhibition was estimated from the ratio of the fluorescence intensities [(F665/F615)×10000].

[1] abbreviates: read-out: % inhibition of IRAK-4 @0.1 μM, compound at 0.1 μM, TR-FRET, 20 μM ATP, 100 nM Biotin Histone H3.
Setting [2] is: read-out: % inhibition of IRAK-4 @ 1 μM, compound at 1 μM, TR-FRET, 20 μM ATP, 100 nM Biotin Histone H3.

Each structure is given as a SMILES string. Structures can show the parent of a compound that is named as a salt. Where two headings read alike, the source gives them in different places.

For orientation: inhibition means the relative decrease from the control value, in per cent. `NCC(=O)O[C@H]1CCN(c2cncc(C(=O)Nc3cc4sc(N5CCOCC5)nc4nc3N3CCCCC3)n2)C1` [Example 65, (S)-1-(6-((2-morpholino-5-(piperidin-1-yl)thiazolo[4,5-b]pyridin-6-yl)carbamoyl)pyrazin-2-yl)pyrrolidin-3-yl glycinate]: the inhibition at 0.1 µM under setting [1] turned out to be 92%. For the same compound, the inhibition at 1 µM under setting [2] is 97%.

As to `O=C(Nc1cc2sc(N3CCOCC3)nc2nc1N1CCCCC1)c1cccc(N2CCC[C@H](O)C2)n1` [Example 29, (S)-6-(3-hydroxypiperidin-1-yl)-N-(2-morpholino-5-(piperidin-1-yl)thiazolo[4,5-b]pyridin-6-yl)picolinamide], the inhibition at 0.1 µM under setting [1] turned out to be 98%. Besides, the inhibition at 1 µM under setting [2] came out at 99%.

Take `NC(=O)C1CCN(c2cccc(C(=O)Nc3cc4sc(N5CCOCC5)nc4nc3N3CCCCC3)n2)CC1` [Example 82, 6-(4-carbamoylpiperidin-1-yl)-N-(2-morpholino-5-(piperidin-1-yl)thiazolo[4,5-b]pyridin-6-yl)picolinamide]: under setting [1], the inhibition at 0.1 µM was determined as 93%. For the same compound, the inhibition at 1 µM under setting [2] amounted to 98%.

Consider `O=C(Nc1cc2oc(N3CCOCC3)nc2nc1N1CC[C@@H](O)C1)c1cnn2cccnc12` [Example 25, (R)—N-(5-(3-hydroxypyrrolidin-1-yl)-2-morpholinooxazolo[4,5-b]pyridin-6-yl)pyrazolo[1,5-a]pyrimidine-3-carboxamide], for which, under setting [1], the inhibition at 0.1 µM stood at 55%. Under setting [2], the inhibition at 1 µM turned out to be 96%.

On to `Cc1cc(-c2nc(C(=O)Nc3cc4oc(N5CCOCC5)nc4nc3N3CC[C@@H](OC(=O)CN)C3)co2)ccn1` [Example 97, (R)-1-(6-(2-(2-methylpyridin-4-yl)oxazole-4-carboxamido)-2-morpholinooxazolo[4,5-b]pyridin-5-yl)pyrrolidin-3-yl glycinate], for which the inhibition at 0.1 µM under setting [1] was determined as 87%. For the same compound, under setting [2], the inhibition at 1 µM was found to be 99%.

Consider `CCOP(=O)(OCC)O[C@H]1CCN(c2cccc(C(=O)Nc3cc4sc(N5CCOCC5)nc4nc3N3CCCCC3)n2)C1` [Example 47, (S)-diethyl (1-(6-((2-morpholino-5-(piperidin-1-yl)thiazolo[4,5-b]pyridin-6-yl)carbamoyl)pyridin-2-yl)pyrrolidin-3-yl)phosphate], for which the inhibition at 0.1 µM (read-out: % inhibition of IRAK-4 @0.1 μM) is 18%. Further, the inhibition at 1 µM (read-out: % inhibition of IRAK-4 @ 1 μM) stood at 58%.

With `O=C(Nc1cc2sc(N3CCOCC3)nc2nc1C1CC1)c1cnn2ccc(N3CCC(O)CC3)nc12` [Example 101, N-(5-cyclopropyl-2-morpholinothiazolo[4,5-b]pyridin-6-yl)-5-(4-hydroxypiperidin-1-yl)pyrazolo[1,5-a]pyrimidine-3-carboxamide], the inhibition at 0.1 µM under setting [1] came out at 96%. For the same compound, the inhibition at 1 µM under setting [2] worked out at 98%.

For `Cc1cc(-c2ccc(C(=O)Nc3cc4oc(N5CCOCC5)nc4nc3N3CC[C@@H](O)C3)o2)ccn1` [Example 91, (R)-N-(5-(3-hydroxypyrrolidin-1-yl)-2-morpholinooxazolo[4,5-b]pyridin-6-yl)-5-(2-methylpyridin-4-yl)furan-2-carboxamide hydrochloride], the inhibition at 0.1 µM under setting [1] came to 45%. Also, the inhibition at 1 µM under setting [2] worked out at 92%.

For `Cc1cc(-c2nc(C(=O)Nc3cc4oc(N5CCOCC5)nc4nc3OC3CCC(N4CCOCC4)CC3)co2)ccn1` (centres unmarked) [Example 16, 2-(2-methylpyridin-4-yl)-N-(2-morpholino-5-(((1r,4r)-4-morpholinocyclohexyl)oxy)oxazolo[4,5-b]pyridin-6-yl)oxazole-4-carboxamide hydrochloride], the inhibition at 0.1 µM under setting [1] was found to be 94%. The inhibition at 1 µM under setting [2] turned out to be 99%.

Turning to `Cc1ccc(C(=O)Nc2cc3sc(N4CCOCC4)nc3nc2N2CCCCC2)nc1N1CC[C@H](O)C1` [Example 84, (S)-6-(3-hydroxypyrrolidin-1-yl)-5-methyl-N-(2-morpholino-5-(piperidin-1-yl)thiazolo[4,5-b]pyridin-6-yl)picolinamide], the inhibition at 0.1 µM under setting [1] came out at 94%. In addition, under setting [2], the inhibition at 1 µM was determined as 98%.

On to `O=C(Nc1cc2sc(N3CCOCC3)nc2nc1N1CCCCC1)c1cccc(N2CCC(CCO)CC2)n1` [Example 35, 6-(4-(2-hydroxyethyl)piperidin-1-yl)-N-(2-morpholino-5-(piperidin-1-yl)thiazolo[4,5-b]pyridin-6-yl)picolinamide], for which the inhibition at 0.1 µM under setting [1] turned out to be 92%. The inhibition at 1 µM under setting [2] worked out at 95%.

As for `O=C(Nc1cc2sc(N3CCOCC3)nc2nc1N1CCC[C@@H](O)C1)c1cccc(N2CC[C@H](O)C2)n1` [Example 28, N-(5-((R)-3-hydroxypiperidin-1-yl)-2-morpholinothiazolo[4,5-b]pyridin-6-yl)-6-((S)-3-hydroxypyrrolidin-1-yl)picolinamide], the inhibition at 0.1 µM under setting [1] was determined as 90%. Also, under setting [2], the inhibition at 1 µM was 93%.

For `Nc1cccc(-c2nc(C(=O)Nc3cc4sc(N5CCOCC5)nc4nc3N3CCCCC3)co2)n1` [Example 11, 2-(6-aminopyridin-2-yl)-N-(2-morpholino-5-(piperidin-1-yl)thiazolo[4,5-b]pyridin-6-yl)oxazole-4-carboxamide hydrochloride], the inhibition at 0.1 µM under setting [1] turned out to be 99%. The inhibition at 1 µM under setting [2] was determined as 98%.

Turning to `O=C(Nc1cc2sc(N3CCOCC3)nc2nc1N1CCOCC1)c1cccc(N2CCC(O)C2)n1` (centres unmarked) [Example 76, N-(2,5-dimorpholinothiazolo[4,5-b]pyridin-6-yl)-6-(3-hydroxypyrrolidin-1-yl)picolinamide], the inhibition at 0.1 µM under setting [1] amounted to 92%. Moreover, under setting [2], the inhibition at 1 µM is 97%.

On to `Nc1cc(-c2nc(C(=O)Nc3cc4sc(N5CCOCC5)nc4nc3N3CCCCC3)co2)c(Cl)cn1` [Example 12, 2-(2-amino-5-chloropyridin-4-yl)-N-(2-morpholino-5-(piperidin-1-yl)thiazolo[4,5-b]pyridin-6-yl)oxazole-4-carboxamide], for which the inhibition at 0.1 µM under setting [1] was determined as 98%. Also, the inhibition at 1 µM under setting [2] was 98%.

For the compound `O=C(Nc1cc2sc(N3CCOCC3)nc2nc1N1CCCCC1)c1cccc(N2CC3CC2CO3)n1` (centres unmarked) [Example 45, 6-(2-oxa-5-azabicyclo[2.2.1]heptan-5-yl)-N-(2-morpholino-5-(piperidin-1-yl)thiazolo[4,5-b]pyridin-6-yl)picolinamide], the inhibition at 0.1 µM under setting [1] was found to be 95%. Further, the inhibition at 1 µM under setting [2] was determined as 97%.

For `NCc1cn(-c2cccc(C(=O)Nc3cc4sc(N5CCOCC5)nc4nc3N3CCCCC3)n2)cn1` [Example 70, 6-(4-(aminomethyl)-1H-imidazol-1-yl)-N-(2-morpholino-5-(piperidin-1-yl)thiazolo[4,5-b]pyridin-6-yl)picolinamide 2,2,2-trifluoroacetate], the inhibition at 0.1 µM under setting [1] came to 98%. Also, the inhibition at 1 µM under setting [2] is 99%.

`Nc1cc(-c2cccc(C(=O)Nc3cc4sc(N5CCOCC5)nc4nc3N3CCCCC3)n2)ccn1` [Example 83, 2′-amino-N-(2-morpholino-5-(piperidin-1-yl)thiazolo[4,5-b]pyridin-6-yl)-[2,4′-bipyridine]-6-carboxamide]: the inhibition at 0.1 µM under setting [1] amounted to 99%. The inhibition at 1 µM under setting [2] worked out at 98%.

On to `O=C(Nc1cc2sc(N3CCOCC3)nc2nc1N1CCCCC1)c1ccnc(N2CC[C@H](O)C2)n1` [Example 60, (S)-2-(3-hydroxypyrrolidin-1-yl)-N-(2-morpholino-5-(piperidin-1-yl)thiazolo[4,5-b]pyridin-6-yl)pyrimidine-4-carboxamide], for which the inhibition at 0.1 µM under setting [1] was found to be 88%. Under setting [2], the inhibition at 1 µM came out at 94%.

In the case of `N[C@H]1CCCCC1Nc1ccn2ncc(C(=O)Nc3cc4sc(N5CCOCC5)nc4nc3C3CC3)c2n1` (some centres unmarked) [Example 98, 2,2,2-trifluoroacetate], the inhibition at 0.1 µM under setting [1] came to 94%. Also, the inhibition at 1 µM under setting [2] is 97%.

Regarding `NCC(=O)N[C@H]1CCN(c2cccc(C(=O)Nc3cc4sc(N5CCOCC5)nc4nc3N3CCCCC3)n2)C1` [Example 27, (S)-6-(3-(2-aminoacetamido)pyrrolidin-1-yl)-N-(2-morpholino-5-(piperidin-1-yl)thiazolo[4,5-b]pyridin-6-yl)picolinamide], the inhibition at 0.1 µM under setting [1] was determined as 95%. In addition, the inhibition at 1 µM under setting [2] turned out to be 97%.

Consider `O=C(Nc1cc2sc(N3CCOCC3)nc2nc1N1CCCCC1)c1cccc(-n2cnc(CO)c2)n1` [Example 67, 6-(4-(hydroxymethyl)-1H-imidazol-1-yl)-N-(2-morpholino-5-(piperidin-1-yl)thiazolo[4,5-b]pyridin-6-yl)picolinamide], for which, under setting [1], the inhibition at 0.1 µM came to 100%. In addition, under setting [2], the inhibition at 1 µM was determined as 101%.

These data come from US20180208605A1, “Substituted Aza Compounds as IRAK-4 Inhibitors” (AURIGENE DISCOVERY TECHNOLOGIES LIMITED, priority 2015, published 2018).
